Experiments:
cynomolgus monkeys = test: Evaluation of wake-promoting effects in cynomolgus monkeys (EEG/EMG/EOG); format: in vivo, cynomolgus monkey; conditions: s.c., at ZT12, 4 h after administration
Protocol: The wake-promoting effects were evaluated by measuring the electroencephalogram (EEG), electromyogram (EMG) and electrooculogram (EOG) in cynomolgus monkeys. Under isoflurane anesthesia (1-5%, Pfizer Japan Inc., Tokyo, Japan), male cynomolgus monkeys (2-3 years old, Hamri Co., Ltd., Ibaraki, Japan) were surgically implanted with radio-telemetry transmitters (TL10M3-D70-EEE, Data Sciences International Inc., MN, USA). EEG leads were stereotaxically positioned at the parietal area and secured to the cranium with stainless-steel screws in contact with the dura. […] Bilateral EMG leads were implanted into the back cervical muscles. After the surgery, each monkey was given penicillin (100,000 units/head, i.m., Meiji Seika Pharma Co., Ltd., Tokyo, Japan), buprenorphine (0.02 mg/kg, i.m., Otsuka Pharmaceutical Co., Ltd., Tokyo, Japan) and prednisolone (1 mg/kg, s.c., Kyoritsu Seiyaku Co., Ltd., Tokyo, Japan) daily for one week. After at least a 1-month recovery period in home cages, the monkeys were habituated to the recording chamber (an acrylic cage 60W×55D×75H (cm)) located in a soundproof, electrically shielded room. After confirming that the monkeys slept sufficiently in the experimental room, the cortical EEG, EMG and EOG signals were recorded using Dataquest ART software (Data Sciences International Inc., MN, USA). The signals were semi automatically scored in 20 sec epochs by a sleep scoring system (SleepSign, Kissei Comtec Co., Ltd., Nagano, Japan). This preliminary scoring was visually inspected and corrected if necessary. Test compound (0.1, 0.3, 1 or 10 mg/kg, Table 4) dissolved in a mixed solution containing 5% DMSO, 5% Cremophor EL, 20% PEG400 and 70% soluplus (1% (w/v)), or vehicle (i.e., a mixed solution containing 5% DMSO, 5% Cremophor EL, 20% PEG400 and 70% soluplus (1% (w/v))) was administered subcutaneously (s.c.) to the cynomolgus monkeys at ZT12 in a volume of 0.5 mL/kg in a pre-post design. The EEG, EMG and EOG recordings were performed for 4 h after the compound administration. The time spent in wakefulness for 4 h after administration (% of vehicle treatment) was calculated by using SleepSign.

[1] = target: T1, human orexin type 2 receptor (Homo sapiens, UniProt O43614); test: Measurement of orexin type 2 receptor agonist activity (calcium fluorescence, CHO cells forcibly expressing human OX2 receptor); format: cell-based; conditions: compound at 3 μM, DMSO = 0%, orexin A (human) 10 nM = 100%
T1 construct: expressed in transfected cells
T1 sequence (O43614 1-444): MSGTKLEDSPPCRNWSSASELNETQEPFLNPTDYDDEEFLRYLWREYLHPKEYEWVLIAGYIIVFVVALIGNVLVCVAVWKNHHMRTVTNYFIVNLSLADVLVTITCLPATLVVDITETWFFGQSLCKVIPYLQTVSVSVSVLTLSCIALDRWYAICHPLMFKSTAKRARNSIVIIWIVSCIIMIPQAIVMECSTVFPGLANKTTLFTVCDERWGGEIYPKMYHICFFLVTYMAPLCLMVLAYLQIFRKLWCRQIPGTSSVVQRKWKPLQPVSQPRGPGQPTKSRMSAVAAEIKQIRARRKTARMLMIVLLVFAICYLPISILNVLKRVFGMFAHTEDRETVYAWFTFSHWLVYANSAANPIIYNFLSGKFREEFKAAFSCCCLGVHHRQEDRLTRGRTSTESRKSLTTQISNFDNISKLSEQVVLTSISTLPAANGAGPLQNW
Procedure, shortened: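 Agonism measured as Fluo-4 calcium fluorescence in CHO-K1 cells stably expressing human OX2 receptor, loaded 30 min at 37° C then 30 min at room temperature with probenecid. Signal recorded about 2 min 40 sec after compound; activity (%) normalised to DMSO (0%) and 10 nM human orexin A (100%).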

| Compound | Wakefulness time (% of vehicle treatment) (Mean, n = 2) (cynomolgus monkeys; 0.3 mg/kg) | OX2R agonist activity (3 μM, %) [1] | Wakefulness time (% of vehicle treatment) (Mean, n = 2) (cynomolgus monkeys; 0.1 mg/kg) | Wakefulness time (% of vehicle treatment) (Mean, n = 2) (cynomolgus monkeys; 10 mg/kg) | Wakefulness time (% of vehicle treatment) (Mean, n = 2) (cynomolgus monkeys; 1 mg/kg) |
| --- | --- | --- | --- | --- | --- |
| CCC1CCC(OCC2C(NS(C)(=O)=O)CCc3ccc(C)c(=O)n32)CC1 [Example 9, rel-N-[(3S,4R)-4-({[(1s,4S)-4-ethylcyclohexyl]oxy}methyl)-7-methyl-6-oxo-1,3,4,6-tetrahydro-2H-quinolizin-3-yl]methanesulfonamide] | 521.43 % of vehicle treatment | 68% | – | – | – |
| CCS(=O)(=O)NC1CCc2ccc(C)c(=O)n2C1COC1CCC(C2CC2)CC1 [Example 112, rel-N-[(3S,4R)-4-({[(1s,4S)-4-cyclopropylcyclohexyl]oxy}methyl)-7-methyl-6-oxo-1,3,4,6-tetrahydro-2H-quinolizin-3-yl]ethanesulfonamide] | – | 94% | 671.65 % of vehicle treatment | – | – |
| Cc1ccc2n(c1=O)C(COC1CCC(C3CC3)CC1)C(NS(=O)(=O)C1CC1)CC2 [Example 113, rel-N-[(3S,4R)-4-({[(1s,4S)-4-cyclopropylcyclohexyl]oxy}methyl)-7-methyl-6-oxo-1,3,4,6-tetrahydro-2H-quinolizin-3-yl]cyclopropanesulfonamide] | – | 87% | 380.66 % of vehicle treatment | – | – |
| CCOC1CCC(OCC2C(NS(C)(=O)=O)CCc3ccc(C)c(=O)n32)CC1 [Example 145, rel-N-[(3S,4R)-4-({[(1s,4S)-4-ethoxycyclohexyl]oxy}methyl)-7-methyl-6-oxo-1,3,4,6-tetrahydro-2H-quinolizin-3-yl]methanesulfonamide] | – | 96% | – | 277.67 % of vehicle treatment | – |
| CC#CC1CCC(OCC2C(NS(=O)(=O)CC)CCc3ccc(C)c(=O)n32)CC1 [Example 147, rel-N-[(3S,4R)-7-methyl-6-oxo-4-({[(1s,4S)-4-(prop-1-yn-1-yl)cyclohexyl]oxy}methyl)-1,3,4,6-tetrahydro-2H-quinolizin-3-yl]ethanesulfonamide] | – | 99% | – | – | 389.64 % of vehicle treatment |
| CC#CC1CCC(OCC2C(NS(=O)(=O)C3CC3)CCc3ccc(C)c(=O)n32)CC1 [Example 148, rel-N-[(3S,4R)-7-methyl-6-oxo-4-({[(1s,4S)-4-(prop-1-yn-1-yl)cyclohexyl]oxy}methyl)-1,3,4,6-tetrahydro-2H-quinolizin-3-yl]cyclopropanesulfonamide] | – | 97% | – | – | 324.87 % of vehicle treatment |

Source: US12448377B2, “Heterocyclic compound” (Takeda Pharmaceutical Company Limited, priority 2019, dated 2025)
